The target of experiment [1] is T1, UNC-8d (Caenorhabditis elegans, UniProt Q21974, G387E).
T1 sequence (Q21974 1-737 isoform Q21974-4 G347E): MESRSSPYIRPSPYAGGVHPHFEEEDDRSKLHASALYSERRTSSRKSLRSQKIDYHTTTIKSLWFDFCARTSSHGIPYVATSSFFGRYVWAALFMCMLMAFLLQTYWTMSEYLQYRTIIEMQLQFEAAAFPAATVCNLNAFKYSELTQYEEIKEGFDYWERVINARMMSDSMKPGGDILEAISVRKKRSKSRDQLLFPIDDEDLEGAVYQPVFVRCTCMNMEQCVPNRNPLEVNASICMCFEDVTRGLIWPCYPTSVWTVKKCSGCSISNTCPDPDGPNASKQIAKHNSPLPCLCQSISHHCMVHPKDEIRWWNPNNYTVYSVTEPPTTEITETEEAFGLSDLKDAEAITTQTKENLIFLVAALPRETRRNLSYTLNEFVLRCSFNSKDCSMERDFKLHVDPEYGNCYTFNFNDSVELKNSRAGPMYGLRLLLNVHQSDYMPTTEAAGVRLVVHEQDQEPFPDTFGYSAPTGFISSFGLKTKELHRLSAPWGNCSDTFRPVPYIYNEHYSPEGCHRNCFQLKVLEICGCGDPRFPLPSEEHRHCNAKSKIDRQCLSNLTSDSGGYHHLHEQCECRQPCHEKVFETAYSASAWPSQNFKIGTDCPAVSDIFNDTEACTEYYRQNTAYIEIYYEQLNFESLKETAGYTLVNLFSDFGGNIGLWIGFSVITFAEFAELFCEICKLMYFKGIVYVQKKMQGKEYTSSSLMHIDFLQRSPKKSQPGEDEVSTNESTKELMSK
The experiment can be described thus: Two-electrode voltage clamp of oocytes coexpressing MEC-2 and UNC-8d. The conditions noted are these: for effect on UNC-8d current: 30 µM; for IC50: control saline (divalent-containing solution). Format: cell-based, C. elegans.

In another experiment the target is T2, MEC-4d (Caenorhabditis elegans, UniProt P24612, A713T).
T2 sequence (P24612 1-768 A713T): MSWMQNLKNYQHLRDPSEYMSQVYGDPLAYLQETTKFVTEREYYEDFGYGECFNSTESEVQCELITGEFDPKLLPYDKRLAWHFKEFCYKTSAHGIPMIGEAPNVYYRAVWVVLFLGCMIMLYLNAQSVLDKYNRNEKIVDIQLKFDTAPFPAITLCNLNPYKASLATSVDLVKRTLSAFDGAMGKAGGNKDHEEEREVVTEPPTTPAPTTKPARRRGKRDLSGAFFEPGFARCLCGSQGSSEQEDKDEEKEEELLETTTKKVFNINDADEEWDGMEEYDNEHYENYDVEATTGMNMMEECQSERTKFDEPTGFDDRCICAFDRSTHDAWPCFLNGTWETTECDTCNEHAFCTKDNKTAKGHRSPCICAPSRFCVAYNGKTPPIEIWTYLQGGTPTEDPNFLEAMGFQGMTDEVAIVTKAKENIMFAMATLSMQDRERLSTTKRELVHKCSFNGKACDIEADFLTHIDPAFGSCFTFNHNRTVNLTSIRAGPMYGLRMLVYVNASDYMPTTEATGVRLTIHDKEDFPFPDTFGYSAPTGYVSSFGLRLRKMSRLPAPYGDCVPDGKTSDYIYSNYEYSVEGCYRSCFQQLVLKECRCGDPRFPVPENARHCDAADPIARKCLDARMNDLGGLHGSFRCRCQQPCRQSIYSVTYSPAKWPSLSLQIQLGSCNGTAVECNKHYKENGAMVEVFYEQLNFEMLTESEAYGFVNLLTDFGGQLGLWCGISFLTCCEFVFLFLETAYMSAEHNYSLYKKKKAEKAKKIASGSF
In words: Two-electrode voltage clamp of oocytes coexpressing MEC-2 and MEC-4d. The format is cell-based, C. elegans. The conditions noted are these: for effect on MEC-4d current: 30 µM. In general terms: In two-electrode clamp one electrode senses voltage and the other passes current.

For another experiment, the system named is DEGT-1d. In words: Two-electrode voltage clamp of oocytes coexpressing MEC-2 and DEGT-1d. Format: cell-based, C. elegans. As to conditions: for effect on DEGT-1d current: 30 µM; for ΔIdrug, change in current compared with uninjected oocytes: −85 mV, coexpressed with MEC-2.
A further experiment deals with T3, MEC-4d(E704K) (Caenorhabditis elegans, UniProt P24612, A713T/E704K).
T3 sequence (P24612 1-768 E704K/A713T): T2 sequence (P24612 1-768 A713T) with E704K
In words: cell-based. More on the design: species or system C. elegans. The conditions noted are these: for drug-induced change in current (Idrug) compared with absence of drug: 700 µM drug, −85 mV.

Another experiment concerns rASIC1a. As to conditions: allosteric effect; ref Lynagh et al., 2017; cited from earlier work.
The test system of another experiment is uninjected oocytes. In words: Two-electrode voltage clamp of uninjected. The format is cell-based, Xenopus laevis. As to conditions: 30 µM.
In experiment [2] the target is T1, UNC-8d. The conditions noted are these: −100 mV, ref Miller-Fleming et al., 2016, cited from earlier work.
For a further experiment, the system named is DEGT-1d alone. The experiment can be described thus: Two-electrode voltage clamp of oocytes expressing DEGT-1d alone. The conditions noted are these: 300 µM amiloride, −85 mV, DEGT-1 alone without MEC-2. The format is cell-based, C. elegans.
For the next experiment, the target named is T4, MEC-2 alone (Caenorhabditis elegans, UniProt Q27433).
T4 sequence (Q27433 1-481): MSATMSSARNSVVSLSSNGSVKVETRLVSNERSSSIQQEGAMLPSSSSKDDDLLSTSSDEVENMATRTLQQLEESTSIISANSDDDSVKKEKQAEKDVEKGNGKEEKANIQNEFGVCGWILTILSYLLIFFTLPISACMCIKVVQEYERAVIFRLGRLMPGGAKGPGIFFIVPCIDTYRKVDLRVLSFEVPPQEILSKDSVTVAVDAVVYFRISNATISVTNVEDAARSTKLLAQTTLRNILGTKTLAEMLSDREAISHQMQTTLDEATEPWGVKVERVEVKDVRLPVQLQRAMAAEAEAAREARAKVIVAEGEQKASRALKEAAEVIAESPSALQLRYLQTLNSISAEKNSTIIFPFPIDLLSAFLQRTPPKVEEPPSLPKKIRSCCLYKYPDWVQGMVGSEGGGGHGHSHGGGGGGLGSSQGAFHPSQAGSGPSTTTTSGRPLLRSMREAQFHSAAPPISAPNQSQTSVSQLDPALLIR
In words: Two-electrode voltage clamp of oocytes expressing MEC-2 alone. Format: cell-based, C. elegans. As to conditions: 300 µM amiloride, −85 mV.

Where a chain is given by its changes, count along the chain named. Where two headings read alike, the source gives them in different places.

The term IC50 denotes the concentration needed to halve the response being measured. The term EC50 denotes the midpoint of the concentration-response curve. A low value points to higher potency in that assay.

As for `N=C(N)c1ccccc1` [Benzamidine, benzamidine], the “effect on UNC-8d current” value on UNC-8d [1] is reported as “inhibited”.
In the case of `CC(C)Cc1ccc(C(C)C(=O)O)cc1` (stereo not shown) [Ibuprofen, ibuprofen], on MEC-4d, the “voltage dependence of potentiation (EC50 vs voltage)” value is on record as “Neither drug showed evidence of voltage dependence” and the “effect on MEC-4d current” value is given as “seems to potentiate”. The “effect on DEGT-1d current” value in the experiment with DEGT-1d was “modestly inhibits”. The “ΔIdrug, change in current compared with uninjected oocytes” value (from here on “ΔIdrug, change in current”) in the experiment on DEGT-1d (100 µM drug) is 0.19 µA. For the same compound, the “ΔIdrug, change in current” value with DEGT-1d (300 µM drug) was 0.322 µA. Besides, at UNC-8d [1], the “effect on UNC-8d current” value was “modestly inhibits”. In addition, the “drug-induced change in current (Idrug) compared with absence of drug” value on MEC-4d(E704K) turned out to be 10.7 µA. Moreover, the “effect on rASIC1a” value in the experiment on rASIC1a is “inhibited”. The “effect on current in control (uninjected) oocytes” value with uninjected oocytes is recorded as “little if any effect”.
As for `NC(=NCc1ccccc1)NC(=O)c1nc(Cl)c(N)nc1N` [Benzamil, benzamil], the “effect on MEC-4d current” value on MEC-4d is “inhibited”. Besides, the IC50 was 47 µM at UNC-8d [2] (divalent-containing solution); 119 µM at UNC-8d [2] (divalent-free solution); 14.8 ± 1.6 µM against UNC-8d [1] (IC50, −60 mV); 15.1 µM against UNC-8d [1] (IC50, −100 mV). Further, the “effect on UNC-8d current” value at UNC-8d [1] is on record as “inhibited”. In addition, the “voltage dependence of block” value at UNC-8d [1] (voltages between −100 and −20 mV) is “not voltage-dependent”.
In the case of `N=C(N)NC(=O)c1nc(Cl)c(N)nc1N` [Amiloride, amiloride], the “ΔIdrug, change in current” value is recorded as 0.0288 µA in the experiment with DEGT-1d alone, 0.111 µA with DEGT-1d (100 µM drug), 0.0623 µA in the experiment on DEGT-1d (300 µM drug) and −0.0067 µA on MEC-2 alone. For the same compound, at MEC-4d, the “effect on MEC-4d current” value was “inhibited”. Moreover, the “effect on UNC-8d current” value at UNC-8d [1] is “inhibited”.
Take `CCN(c1nc(N)c(C(=O)NC(=N)N)nc1Cl)C(C)C` [EIPA, 5-(N-ethyl-N-isopropyl)amiloride]: at MEC-4d, the IC50 turned out to be 3.06 ± 0.6 µM, the “voltage dependence of apparent affinity (block)” value is “insensitive to voltage” and the “effect on MEC-4d current” value is listed as “inhibited”. Moreover, the “effect on DEGT-1d current” value in the experiment with DEGT-1d is “no detectable effect”. The “effect on UNC-8d current” value at UNC-8d [1] is “inhibited”. Further, the “effect on current in control (uninjected) oocytes” value with uninjected oocytes is reported as “no detectable effect”.
In the case of `O=C(O)Cc1ccccc1Nc1c(Cl)cccc1Cl` [Diclofenac, diclofenac], the “effect on UNC-8d current” value at UNC-8d [1] is listed as “partially inhibit”.
As to `CC(C(=O)O)c1ccc(-c2ccccc2)c(F)c1` (stereo not shown) [Flurbiprofen, flurbiprofen], the “effect on DEGT-1d current” value in the experiment with DEGT-1d is reported as “partially inhibit”. Besides, the “effect on UNC-8d current” value on UNC-8d [1] is “partially inhibit”.
Regarding `CC(=O)Oc1ccccc1C(=O)O` [Aspirin, aspirin], on MEC-4d, the EC50 came to 79.9 ± 3.7 µM and the “voltage dependence of potentiation (EC50 vs voltage)” value is on record as “Neither drug showed evidence of voltage dependence”. For the same compound, at MEC-4d(E704K), the EC50 was determined as 179 ± 56 µM and the “drug-induced change in current (Idrug) compared with absence of drug” value is reported as 6.53 µA.
In the case of `NC(=Nc1ccccc1)NC(=O)c1nc(Cl)c(N)nc1N` [Phenamil, phenamil], the “effect on MEC-4d current” value on MEC-4d is on record as “inhibited”. The “effect on UNC-8d current” value at UNC-8d [1] was “inhibited”.
As for `CC(C)Cc1ccc([C@H](C)C(=O)O)cc1` [S-Ibu, S-ibuprofen], the “difference in drug-sensitive current compared with uninjected oocytes (ΔIdrug)” value on MEC-4d (30 µM ibuprofen isomer) came out at 4.7 µA.
Regarding `O=C(O)c1ccccc1O` [Salicylic acid, salicylic acid], the “effect on DEGT-1d current” value in the experiment on DEGT-1d is “partially inhibit”.

The values above are taken from paper PMC7933985 (The Journal of General Physiology, 2021).
